pIC50: −log10 of the molar value. Where a name gives a salt, the structure may show the parent alone.
Biological target: Proton Pump (H^+/K^+-ATPase) (Sus scrofa, UniProt P19156)
Assay: Inhibitory effects on proton pump (H^+/K^+-ATPase) activity
Assay type: biochemical
Settings: hog gastric vesicles; K^+ stimulated H^+/K^+-ATPase activity; 30 minutes at 37° C.

Chain of Proton Pump (H^+/K^+-ATPase) (P19156 2-1034 limits assumed): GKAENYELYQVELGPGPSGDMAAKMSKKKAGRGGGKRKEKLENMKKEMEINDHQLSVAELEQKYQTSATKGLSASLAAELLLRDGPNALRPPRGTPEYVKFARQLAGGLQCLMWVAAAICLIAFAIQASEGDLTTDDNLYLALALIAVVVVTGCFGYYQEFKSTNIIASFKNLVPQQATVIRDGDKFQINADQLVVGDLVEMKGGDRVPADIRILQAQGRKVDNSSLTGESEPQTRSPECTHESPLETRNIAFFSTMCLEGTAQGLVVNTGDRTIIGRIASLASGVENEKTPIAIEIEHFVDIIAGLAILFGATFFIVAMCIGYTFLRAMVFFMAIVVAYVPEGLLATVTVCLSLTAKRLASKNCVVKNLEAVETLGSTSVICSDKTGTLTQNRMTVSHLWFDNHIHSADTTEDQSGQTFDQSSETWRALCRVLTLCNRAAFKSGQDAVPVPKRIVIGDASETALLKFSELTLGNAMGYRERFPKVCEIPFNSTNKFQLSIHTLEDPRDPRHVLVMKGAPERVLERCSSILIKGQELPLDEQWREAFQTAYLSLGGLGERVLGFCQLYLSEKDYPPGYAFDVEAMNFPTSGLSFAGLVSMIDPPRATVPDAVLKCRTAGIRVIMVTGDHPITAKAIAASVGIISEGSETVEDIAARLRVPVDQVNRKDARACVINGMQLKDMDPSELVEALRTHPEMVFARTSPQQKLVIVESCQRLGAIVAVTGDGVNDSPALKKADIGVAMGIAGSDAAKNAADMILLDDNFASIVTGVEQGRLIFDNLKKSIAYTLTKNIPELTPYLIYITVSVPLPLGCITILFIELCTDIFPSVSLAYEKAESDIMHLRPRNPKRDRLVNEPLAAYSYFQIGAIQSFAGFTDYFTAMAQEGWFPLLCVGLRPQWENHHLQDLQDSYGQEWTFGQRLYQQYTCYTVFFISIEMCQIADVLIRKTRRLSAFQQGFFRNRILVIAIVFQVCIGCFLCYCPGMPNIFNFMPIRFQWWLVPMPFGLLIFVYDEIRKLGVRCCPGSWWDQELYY
Chain of Proton Pump (H^+/K^+-ATPase) (P18434 whole entry partner): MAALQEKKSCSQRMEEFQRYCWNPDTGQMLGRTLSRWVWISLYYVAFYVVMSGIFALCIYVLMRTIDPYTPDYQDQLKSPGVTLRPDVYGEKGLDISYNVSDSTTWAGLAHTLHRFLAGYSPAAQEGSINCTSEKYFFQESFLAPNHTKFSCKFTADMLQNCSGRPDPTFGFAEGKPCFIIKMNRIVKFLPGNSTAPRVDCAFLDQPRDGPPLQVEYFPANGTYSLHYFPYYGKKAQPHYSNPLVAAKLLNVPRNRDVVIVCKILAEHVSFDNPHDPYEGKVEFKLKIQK

In order of falling pIC50:
1. C#CCn1c(C)c(C)c2ccnc(-c3ccc(C=C)cc3)c21 [Example 249, 2,3-dimethyl-1-(prop-2-ynyl)-7-(4-vinylphenyl)-1H-pyrrolo[2,3-c]pyridine hydrochloride]  7.30
2. Cc1ccc(CNc2nccc3c(C)c(C)n(CC(C)C)c23)cc1 [Example 198, 1-isobutyl-2,3-dimethyl-7-(4-methylbenzylamino)-1H-pyrrolo[2,3-c]pyridine hydrochloride]  7.19
3. Cc1c(C)n(CC(C)C)c2c(NCc3ccc(Cl)cc3)nccc12 [Example 209, 7-(4-chlorobenzylamino)-1-isobutyl-2,3-dimethyl-1H-pyrrolo[2,3-c]pyridine hydrochloride]  7.18
4. Cc1c(C)n(CC2CC2)c2c(NCc3ccc(F)cc3)nccc12 [Example 226, 1-cyclopropylmethyl-7-(4-fluorobenzylamino)-2,3-dimethyl-1H-pyrrolo[2,3-c]pyridine hydrochloride]  7.15
5. Cc1c(C)n(CC2CC2)c2c(NCc3ccc(Cl)cc3)nccc12 [Example 227, 7-(4-chlorobenzylamino)-1-cyclopropylmethyl-2,3-dimethyl-1H-pyrrolo[2,3-c]pyridine hydrochloride]  7.14
6. C=CCn1c(C)c(C)c2ccnc(-c3ccc(SC)cc3)c21 [Example 263, 1-allyl-2,3-dimethyl-7-(4-methylsulfanylphenyl)-1H-pyrrolo[2,3-c]pyridine hydrochloride]  7.12
7. Cc1[nH]c2c(NCc3ccccc3)nccc2c1C [Example 175, 7-benzylamino-2,3-dimethyl-1H-pyrrolo[2,3-c]pyridine hydrochloride]  7.10
8. Cc1c(C)n(Cc2cccc(F)c2)c2c(N(C)Cc3ccc(F)cc3)nccc12 [Example 159, 1-(3-fluorobenzyl)-7-[N-(4-fluorobenzyl)-N-methyl]amino-2,3-dimethyl-1H-pyrrolo[2,3-c]pyridine hydrochloride]  7.05
9. C=Cc1ccc(-c2nccc3c(C)c(C)n(Cc4cccc(F)c4)c23)cc1 [Example 243, 1-(3-fluorobenzyl)-2,3-dimethyl-7-(4-vinylphenyl)-1H-pyrrolo[2,3-c]pyridine hydrochloride]  7.05
10. C=Cc1ccc(-c2nccc3c(C)c(C)n(Cc4ccc(C)cc4)c23)cc1 [Example 244, 2,3-dimethyl-1-(4-methylbenzyl)-7-(4-vinylphenyl)-1H-pyrrolo[2,3-c]pyridine hydrochloride]  7.05
11. C=Cc1ccc(-c2nccc3c(C)c(C)n(CCOC)c23)cc1 [Example 247, 1-(2-methoxyethyl)-2,3-dimethyl-7-(4-vinylphenyl)-1H-pyrrolo[2,3-c]pyridine hydrochloride]  7.05
12. CCCn1c(C)c(C)c2ccnc(NCc3ccccc3C)c21 [Example 230, 2,3-dimethyl-7-(2-methylbenzylamino)-1-propyl-1H-pyrrolo[2,3-c]pyridine hydrochloride]  7.04
13. C=Cc1ccc(-c2nccc3c(C)c(C)[nH]c23)cc1 [Example 242, 2,3-dimethyl-7-(4-vinylphenyl)-1H-pyrrolo[2,3-c]pyridine]  7.00
14. C=CCn1c(C)c(C)c2ccnc(-c3ccc(C=C)cc3)c21 [Example 245, 1-allyl-2,3-dimethyl-7-(4-vinylphenyl)-1H-pyrrolo[2,3-c]pyridine hydrochloride]  7.00
15. C=Cc1ccc(-c2nccc3c(C)c(C)n(Cc4ccccc4)c23)cc1 [Example 246, 1-benzyl-2,3-dimethyl-7-(4-vinylphenyl)-1H-pyrrolo[2,3-c]pyridine hydrochloride]  6.96
16. CCCn1c(C)c(C)c2ccnc(NCc3ccc(F)cc3)c21 [Example 228, 7-(4-fluorobenzylamino)-2,3-dimethyl-1-propyl-1H-pyrrolo[2,3-c]pyridine hydrochloride]  6.88
17. CCCn1c(C)c(C)c2ccnc(NCc3ccccc3Cl)c21 [Example 231, 7-(2-chlorobenzylamino)-2,3-dimethyl-1-propyl-1H-pyrrolo[2,3-c]pyridine hydrochloride]  6.86
18. C=Cc1ccc(-c2nccc3c(C)c(C)n(Cc4cccc(OC)c4)c23)cc1 [Example 253, 2,3-dimethyl-1-(3-methoxybenzyl)-7-(4-vinylphenyl)-1H-pyrrolo[2,3-c]pyridine hydrochloride]  6.77
19. Cc1ccc(CNc2nccc3c(C)c(C)n(CC4CC4)c23)cc1 [Example 204, 1-cyclopropylmethyl-2,3-dimethyl-7-(4-methylbenzylamino)-1H-pyrrolo[2,3-c]pyridine hydrochloride]  6.68
20. CC=CCn1c(C)c(C)c2ccnc(NCc3ccccc3)c21 [Example 183, 7-benzylamino-1-(but-2-enyl)-2,3-dimethyl-1H-pyrrolo[2,3-c]pyridine hydrochloride]  6.66
21. CSc1ccc(-c2nccc3c(C)c(C)[nH]c23)cc1 [Example 262, 2,3-dimethyl-7-(4-methylsulfanylphenyl)-1H-pyrrolo[2,3-c]pyridine]  6.66
22. Cc1c(C)n(CC(C)C)c2c(NCc3ccccc3)nccc12 [Example 184, 7-benzylamino-1-isobutyl-2,3-dimethyl-1H-pyrrolo[2,3-c]pyridine hydrochloride]  6.62
23. C=CCn1c(C)c(C)c2ccnc(NCc3ccccc3)c21 [Example 176, 1-allyl-7-benzylamino-2,3-dimethyl-1H-pyrrolo[2,3-c]pyridine hydrochloride]  6.59
24. Cc1ccccc1CNc1nccc2c(C)c(C)n(Cc3ccccc3)c12 [Example 216, 1-benzyl-2,3-dimethyl-7-(2-methylbenzylamino)-1H-pyrrolo[2,3-c]pyridine hydrochloride]  6.59
25. Cc1c(C)n(CC2OCCO2)c2c(N(C)Cc3ccc(F)cc3)nccc12 [Example 158, 1-(1,3-dioxolan-2-ylmethyl)-7-[N-(4-fluorobenzyl)-N-methyl]amino-2,3-dimethyl-1H-pyrrolo[2,3-c]pyridine hydrochloride]  6.57
26. C=Cc1ccc(-c2nccc3c(C)c(C)n(Cc4ccc5ccccc5c4)c23)cc1 [Example 257, 2,3-dimethyl-1-(naphthalen-2-ylmethyl)-7-(4-vinylphenyl)-1H-pyrrolo[2,3-c]pyridine hydrochloride]  6.57
27. Cc1c(C)n(Cc2ccccc2)c2c(NCc3ccc(F)cc3)nccc12 [Example 214, 1-benzyl-7-(4-fluorobenzylamino)-2,3-dimethyl-1H-pyrrolo[2,3-c]pyridine hydrochloride]  6.54
28. COCCn1c(C)c(C)c2ccnc(NCc3ccccc3C)c21 [Example 213, 1-(2-methoxyethyl)-2,3-dimethyl-7-(2-methylbenzylamino)-1H-pyrrolo[2,3-c]pyridine hydrochloride]  6.51
29. C=Cc1ccc(-c2nccc3c(C)c(C)n(CCC(C)C)c23)cc1 [Example 256, 2,3-dimethyl-1-(3-methylbutyl)-7-(4-vinylphenyl)-1H-pyrrolo[2,3-c]pyridine hydrochloride]  6.51
30. Cc1c(C)n(CC2CC2)c2c(NCc3ccccc3)nccc12 [Example 185, 7-benzylamino-1-cyclopropylmethyl-2,3-dimethyl-1H-pyrrolo[2,3-c]pyridine hydrochloride]  6.49
31. CCCn1c(C)c(C)c2ccnc(NCc3ccc(C)cc3)c21 [Example 205, 2,3-dimethyl-7-(4-methylbenzylamino)-1-propyl-1H-pyrrolo[2,3-c]pyridine hydrochloride]  6.48
32. C=Cc1ccc(-c2nccc3c(C)c(C)n(Cc4ccc(F)cc4)c23)cc1 [Example 258, 2,3-dimethyl-1-(4-fluorobenzyl)-7-(4-vinylphenyl)-1H-pyrrolo[2,3-c]pyridine hydrochloride]  6.48
33. CCn1c(C)c(C)c2ccnc(NCc3ccccc3C)c21 [Example 225, 1-ethyl-2,3-dimethyl-7-(2-methylbenzylamino)-1H-pyrrolo[2,3-c]pyridine hydrochloride]  6.46
34. C=CCCn1c(C)c(C)c2ccnc(NCc3ccccc3)c21 [Example 181, 7-benzylamino-1-(but-3-enyl)-2,3-dimethyl-1H-pyrrolo[2,3-c]pyridine hydrochloride]  6.44
35. C=CCCn1c(C)c(C)c2ccnc(N(C)Cc3ccc(F)cc3)c21 [Example 157, 1-(but-3-enyl)-7-[N-(4-fluorobenzyl)-N-methyl]amino-2,3-dimethyl-1H-pyrrolo[2,3-c]pyridine hydrochloride]  6.42
36. Cc1c(C)n(Cc2ccccc2)c2c(NCc3ccc(Cl)cc3)nccc12 [Example 215, 1-benzyl-7-(4-chlorobenzylamino)-2,3-dimethyl-1H-pyrrolo[2,3-c]pyridine hydrochloride]  6.38
37. Cc1ccc(Cn2c(C)c(C)c3ccnc(NCc4ccc(F)cc4)c32)cc1 [Example 220, 7-(4-fluorobenzylamino)-2,3-dimethyl-1-(4-methylbenzyl)-1H-pyrrolo[2,3-c]pyridine hydrochloride]  6.37
38. CCn1c(C)c(C)c2ccnc(NCc3ccc(F)cc3)c21 [Example 223, 1-ethyl-7-(4-fluorobenzylamino)-2,3-dimethyl-1H-pyrrolo[2,3-c]pyridine hydrochloride]  6.36
39. C=Cc1ccc(-c2nccc3c(C)c(C)n(CC)c23)cc1 [Example 251, 1-ethyl-2,3-dimethyl-7-(4-vinylphenyl)-1H-pyrrolo[2,3-c]pyridine hydrochloride]  6.34
40. COCCn1c(C)c(C)c2ccnc(-c3ccc(SC)cc3)c21 [Example 264, 1-(2-methoxyethyl)-2,3-dimethyl-7-(4-methylsulfanylphenyl)-1H-pyrrolo[2,3-c]pyridine hydrochloride]  6.31
41. Cc1ccc(Cn2c(C)c(C)c3ccnc(NCc4ccc(Cl)cc4)c32)cc1 [Example 221, 7-(4-chlorobenzylamino)-2,3-dimethyl-1-(4-methylbenzyl)-1H-pyrrolo[2,3-c]pyridine hydrochloride]  6.20
42. Cc1ccccc1CNc1nccc2c(C)c(C)n(Cc3ccc(F)cc3)c12 [Example 219, 1-(4-fluorobenzyl)-2,3-dimethyl-7-(2-methylbenzylamino)-1H-pyrrolo[2,3-c]pyridine hydrochloride]  5.91

From patent US7662832B2, “Pyrrolo[2,3-c]pyridine derivatives and processes for the preparation thereof” (priority 2004, dated 2010)
